Measurements: ChEMBL document CHEMBL1201862, “PubChem BioAssay data set” (2004)
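Following 48 hours of exposure in 96-well plates, responses at five concentrations were used to interpolate endpoints linearly. GI50 is the concentration that inhibits growth by half.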 Activity calls are given as the source filed them. Cut-off read from the data, not from the text of the source: active = GI50 up to about 1.1 µM and inactive = higher.

Columns and labels:
Assay in all cases: DTP human tumour cell line panel, 48 h
[1] = system: SF-539
[2] = system: OVCAR-8
[3] = system: A549
[4] = system: BT-549
[5] = system: M14
[6] = system: SW-620
[7] = system: A498
[8] = system: SK-MEL-28
[9] = system: IGROV-1
[10] = system: LOX IMVI
[11] = system: MDA-N
[12] = system: SR
[13] = system: K562
[14] = system: RPMI-8226
[15] = system: TK-10
[16] = system: PC-3
[17] = system: NCI-H23
[18] = system: U-251
[19] = system: Hs-578T
[20] = system: MDA-MB-231

| Structure (SMILES) | GI50 [1] | GI50 [2] | GI50 [3] | GI50 [4] | GI50 [5] | GI50 [6] | GI50 [7] | GI50 [8] | GI50 [9] | GI50 [10] | GI50 [11] | GI50 [12] | GI50 [13] | GI50 [14] | GI50 [15] | GI50 [16] | GI50 [17] | GI50 [18] | GI50 [19] | GI50 [20] |
| --- | --- | --- | --- | --- | --- | --- | --- | --- | --- | --- | --- | --- | --- | --- | --- | --- | --- | --- | --- | --- |
| O=C1c2cccc(NCCNCCO)c2C(=O)c2cccc(NCCNCCO)c21 | 0.601 µM (active) | 0.989 µM (active) | 1.56 µM (inactive) | 2.96 µM (inactive) | 1.81 µM (inactive) | 0.714 µM (active) | 2.48 µM (inactive) | 1.71 µM (inactive) | 1.56 µM (inactive) | 0.272 µM (active) | 0.215 µM (active) | 0.519 µM (active) | 1.12 µM (active) | 1.2 µM (inactive) | 3.73 µM (inactive) | 0.733 µM (active) | 1.87 µM (inactive) | 0.792 µM (active) |  |  |
| CCOC(=O)C(C(=O)OCC)=C1NC2(c3ccccc3Nc3ccccc32)C(C#N)S1 (stereo not given) | 11 µM (inactive) | 10.9 µM (inactive) | 4.39 µM (inactive) | 14.2 µM (inactive) | 7.46 µM (inactive) | 12.4 µM (inactive) | 13.8 µM (inactive) | 17 µM (inactive) | 11.1 µM (inactive) | 13.6 µM (inactive) | 14.4 µM (inactive) | 2.81 µM (inactive) | 7.53 µM (inactive) | 3.01 µM (inactive) | 13.5 µM (inactive) | 4.52 µM (inactive) | 4.63 µM (inactive) | 12.1 µM (inactive) | 19.1 µM (inactive) |  |
| Cc1ccc(C)c2c1C/C(=C\c1ccccc1C(=O)O)C2=O | 18.5 µM (inactive) | > 100 µM (inactive) | 90.8 µM (inactive) | > 100 µM (inactive) | > 100 µM (inactive) | > 100 µM (inactive) | > 100 µM (inactive) | > 100 µM (inactive) | > 100 µM (inactive) | 54.2 µM (inactive) | 87.3 µM (inactive) | 36.1 µM (inactive) | 87.7 µM (inactive) | 27.7 µM (inactive) | > 100 µM (inactive) | > 100 µM (inactive) | > 100 µM (inactive) | 88.3 µM (inactive) | > 100 µM (inactive) |  |
| COC(=O)C1=C(C)NC(C)=C(C(=O)OC)C1c1cccc(N=O)c1 | 19.1 µM (inactive) | 15 µM (inactive) | 31.8 µM (inactive) | 17 µM (inactive) | 13.9 µM (inactive) | 4.78 µM (inactive) | 35 µM (inactive) | 16.7 µM (inactive) | 17 µM (inactive) | 17.4 µM (inactive) | 13.3 µM (inactive) | 5.41 µM (inactive) | 4.69 µM (inactive) | 4.53 µM (inactive) | 15 µM (inactive) | 17.8 µM (inactive) | 19.5 µM (inactive) | 17 µM (inactive) |  | 14.4 µM (inactive) |
| COc1cc(C2S/C(=C/c3ccccc3)C(=O)N2c2cc(Cl)ccc2Cl)cc(OC)c1OC (stereo not given) | 17.9 µM (inactive) | 36.3 µM (inactive) | 91.8 µM (inactive) | 39.5 µM (inactive) | 19.6 µM (inactive) | 36 µM (inactive) | > 100 µM (inactive) | 64.9 µM (inactive) | 18.9 µM (inactive) | 15.8 µM (inactive) | 34.5 µM (inactive) | 44.9 µM (inactive) | 47 µM (inactive) | 36.2 µM (inactive) | > 100 µM (inactive) | 31.6 µM (inactive) | 49.4 µM (inactive) | 35.7 µM (inactive) |  | 40.3 µM (inactive) |
| COc1ccc(-c2oc3cc(O)cc(O)c3c(=O)c2OC)cc1 [ERMANIN] |  | 44.1 µM (inactive) | 34.9 µM (inactive) |  | 37.2 µM (inactive) | 31.2 µM (inactive) | 24.4 µM (inactive) | 27 µM (inactive) | 28.3 µM (inactive) | 38.2 µM (inactive) | 25.4 µM (inactive) | 19.5 µM (inactive) | 9.79 µM (inactive) | 15 µM (inactive) | 39.9 µM (inactive) | 31 µM (inactive) |  | 18 µM (inactive) |  | 31.8 µM (inactive) |
| NC(=S)N/N=C/C1NCCC2CCCCC21 (stereo not given) | 0.0272 µM (active) | 0.149 µM (active) | 0.262 µM (active) | 0.834 µM (active) | 0.17 µM (active) | 0.568 µM (active) | 0.17 µM (active) | 2.38 µM (inactive) | 0.689 µM (active) | 0.221 µM (active) |  | 0.137 µM (active) | 0.617 µM (active) | 0.279 µM (active) | 0.33 µM (active) | 0.363 µM (active) | 0.133 µM (active) | 0.136 µM (active) | 1.15 µM (inactive) | 1.12 µM (active) |
| COc1ccc(/C=C2\CCC(C)C3C2=NN(c2ccccc2)C3c2ccc(OC)c(OC)c2)cc1OC (stereo not given) | 2.48 µM (inactive) | 3.28 µM (inactive) |  | 3.24 µM (inactive) | 4.66 µM (inactive) | 4.22 µM (inactive) | 3.42 µM (inactive) | 4.97 µM (inactive) | 2.32 µM (inactive) | 2.49 µM (inactive) | 3.94 µM (inactive) |  | 2.01 µM (inactive) | 1.23 µM (inactive) | 3.22 µM (inactive) | 3.5 µM (inactive) | 4.21 µM (inactive) | 4.33 µM (inactive) | 7.29 µM (inactive) | 4.19 µM (inactive) |
| C[C@]12CC/C(=N\OCCN3CCCC3)C=C1CCC1C2CC[C@@]2(C)C1CC[C@]2(C)O (stereo not given in full) | 6.62 µM (inactive) | 14 µM (inactive) | 11.5 µM (inactive) | 10.2 µM (inactive) | 13.9 µM (inactive) |  | 0.647 µM (active) |  | 8.95 µM (inactive) | 4.33 µM (inactive) | 2.56 µM (inactive) |  | 2.4 µM (inactive) | 2.83 µM (inactive) | 15.8 µM (inactive) | 7.29 µM (inactive) | 12.2 µM (inactive) | 7.11 µM (inactive) | 13.8 µM (inactive) | 16.6 µM (inactive) |
| CSC1SCC2C(=O)N(C)C3(CC3C)C(=O)OCC(NC(=O)c3nc4ccccc4cc3O)C(=O)NC(C)C(=O)N(C)C1C(=O)N(C)C1(CC1C)C(=O)OCC(NC(=O)c1nc3ccccc3cc1O)C(=O)NC(C)C(=O)N2C (stereo not given) | < 0.0001 µM (active) | < 0.0001 µM (active) | < 0.0001 µM (active) | < 0.01 µM (active) | < 0.0001 µM (active) | < 0.0001 µM (active) | < 0.0001 µM (active) | < 0.0001 µM (active) | < 0.0001 µM (active) | < 0.0001 µM (active) |  | < 0.0001 µM (active) | < 0.0001 µM (active) | < 0.0001 µM (active) | < 0.0001 µM (active) | < 0.0001 µM (active) | < 0.0001 µM (active) | < 0.0001 µM (active) | < 0.0001 µM (active) | < 0.0001 µM (active) |
| O=C1c2cccc(NCCCNCCO)c2C(=O)c2cccc(NCCCNCCO)c21 | 1.49 µM (inactive) | 2.16 µM (inactive) | 2 µM (inactive) | 2.05 µM (inactive) | 3.61 µM (inactive) | 2.4 µM (inactive) | 2.8 µM (inactive) | 1.83 µM (inactive) | 2.81 µM (inactive) | 2.29 µM (inactive) | 1.71 µM (inactive) |  |  | 2.44 µM (inactive) | 3.85 µM (inactive) | 2.41 µM (inactive) | 1.81 µM (inactive) |  | 0.627 µM (active) | 1.42 µM (inactive) |
